# Read-outs that look alike come from different tables or passages of the source.
# Legend:
# K. pneumoniae [1] = experiment: MIC; assay type: cell-based, Klebsiella pneumoniae
# N. farcinica strain = experiment: E-test on Mueller-Hinton agar; assay type: cell-based; conditions: Nocardia farcinica
# Acinetobacter = experiment: Disk diffusion; assay type: cell-based; conditions: 37 isolates selected as resistant to beta-lactams
# Pseudomonas spp. = experiment: MIC; assay type: cell-based
# [2] = tested on: inducible Enterobacteriaceae; experiment: SMART 2003, intraabdominal isolates; assay type: cell-based
# Enterobacteriaceae = experiment: SMART 2003 Europe, microdilution; assay type: cell-based; conditions: 1948 isolates
# E. coli [3] = experiment: SMART 2003 Europe, microdilution; assay type: cell-based, Escherichia coli; conditions: 1106 isolates
# Klebsiella = experiment: SMART 2003 Europe, microdilution; assay type: cell-based, Klebsiella spp.; conditions: 341 isolates
# E. coli [4] = experiment: E-test susceptibility; assay type: cell-based, Escherichia coli
# K. pneumoniae [5] = experiment: E-test susceptibility; assay type: cell-based, Klebsiella pneumoniae
# K. oxytoca = experiment: E-test susceptibility; assay type: cell-based, Klebsiella oxytoca
# Gram-negative rods = experiment: Microscan MIC, blood culture isolates; assay type: cell-based
# Pseudomonas aeruginosa = experiment: MIC, strains from cystic fibrosis patients; conditions: by MIC
# E. coli [6] = experiment: Resistance of UTI isolates of renal transplant recipients; assay type: cell-based, Escherichia coli; conditions: 75 isolates
# Streptococcus pneumoniae = experiment: Susceptibility testing; assay type: cell-based; conditions: 99 isolates tested
# Haemophilus influenzae = experiment: Susceptibility testing; assay type: cell-based; conditions: conjunctival isolates 2000–2004
# Staphylococcus aureus = experiment: Susceptibility testing; assay type: cell-based; conditions: conjunctival isolates 2000–2004
# [7] = tested on: Salmonella serotype Enteritidis; experiment: Disk diffusion, food isolates Spain; assay type: cell-based; conditions: n = 96
# [8] = tested on: Salmonella serotype Typhimurium; experiment: Disk diffusion, food isolates Spain; assay type: cell-based; conditions: n = 53
# [9] = tested on: Salmonella, other 49 serotypes; experiment: Disk diffusion, food isolates Spain; assay type: cell-based; conditions: n = 115
# Nocardia spp. = experiment: E-test on Mueller Hinton agar, 81 clinical isolates; assay type: cell-based
# [10] = tested on: glycopeptide intermediate Staphylococcus species (GISS); experiment: VITEK II, screening plate and E test, blood isolates; assay type: cell-based, coagulase-negative Staphylococci; conditions: 73 GISS strains
# Escherichia coli (ECO) = experiment: Broth microdilution; assay type: cell-based; conditions: 2001
# [11] = tested on: Pseudomonas putida clinical isolates; experiment: Agar dilution MIC; assay type: cell-based
# Shigella spp. = experiment: Disk diffusion, stool isolates Tehran; assay type: cell-based; conditions: 96 isolates
# K. oxytoca isolate = experiment: MIC of qnr-positive SHV-12 producer; assay type: cell-based; conditions: Klebsiella oxytoca
# [12] = tested on: Streptococcus agalactiae strains P0162 and P0425; experiment: Microdilution; assay type: cell-based
# Salmonella enterica = experiment: VITEK, NCCLS microdilution and disc diffusion of quinolones; assay type: cell-based
molecule,measurement,setting,value
C[C@@H](O)[C@H]1C(=O)N2C(C(=O)O)=C(S[C@@H]3CN[C@H](C(=O)N(C)C)C3)[C@H](C)[C@H]12 [meropenem],MIC,K. pneumoniae [1]; Klebsiella pneumoniae,4 to 16 µg/mL
same,MIC,N. farcinica strain,> 32 µg/mL
same,resistant isolates,Acinetobacter,0.0%
same,susceptible strains,Pseudomonas spp.,98%
same,% susceptible,[2]; A/P (N = 200),100%
same,% susceptible,[2]; EU (N = 354),99%
same,% susceptible,[2]; LA (N=113),98%
same,% susceptible,[2]; NA (N = 163),99%
same,per cent susceptible,Enterobacteriaceae,>99%
same,per cent susceptible,E. coli [3],>99%
same,per cent susceptible,Klebsiella,99%
same,Susceptible isolates,"E. coli [4]; ICU, SRGA breakpoints, tigecycline tentative S ≤2 μg/ml",100%
same,Susceptible isolates,E. coli [4]; non ICU,99%
same,Susceptible isolates,K. pneumoniae [5]; ICU,100/100%
same,Susceptible isolates,K. pneumoniae [5]; non ICU,100/100%
same,Susceptible isolates,K. oxytoca; ICU,100/100%
same,Susceptible isolates,K. oxytoca; non ICU,100/100%
same,susceptible strains (n/N),Gram-negative rods,16/16
same,Susceptible isolates,Pseudomonas aeruginosa,96%
Ampicillin/ Sulbactam [A/S],rate of resistance,E. coli [6],34%
same,resistant isolates,Acinetobacter,10.8%
NC[C@H]1O[C@H](O[C@H]2[C@H](O)[C@@H](O[C@H]3O[C@H](CO)[C@@H](O)[C@H](N)[C@H]3O)[C@H](N)C[C@@H]2N)[C@H](N)C[C@@H]1O [tobramycin],resistant isolates,Streptococcus pneumoniae,49.5%
same,resistant isolates,Haemophilus influenzae,2.6%
same,resistant isolates,Staphylococcus aureus,14.6%
same,susceptibility category,K. pneumoniae [1]; BSAC,resistant
same,resistance rate (NCCLS M100-S13),[7],1%
same,resistance rate (NCCLS M100-S13),[8],4%
same,resistance rate (NCCLS M100-S13),[9],0%
same,MIC50,Nocardia spp.; Nocardia,4 µg/mL
same,MIC90,Nocardia spp.; Nocardia,12 µg/mL
same,MIC range,Nocardia spp.; read after 48 and 72 h,<0.016 to 24 µg/mL
same,resistance rate,[10],"91,8%"
same,resistant isolates,Acinetobacter,10.8%
same,% susceptible,[2]; A/P (N = 200),77%
same,% susceptible,[2]; EU (N = 354),93%
same,% susceptible,[2]; LA (N=113),79%
same,% susceptible,[2]; NA (N = 163),93%
same,per cent susceptible,Enterobacteriaceae,93%
same,per cent susceptible,E. coli [3],92%
same,per cent susceptible,Klebsiella,91%
same,susceptible,Escherichia coli (ECO); NAL-resistant isolates,71.4%
same,susceptible,Escherichia coli (ECO); NAL-susceptible isolates,95.0%
CCn1cc(C(=O)O)c(=O)c2cc(F)c(N3CCNCC3)cc21 [norfloxacin],MIC,[11],> 128 µg/mL
same,sensitive,Shigella spp.,100%
same,MIC,K. oxytoca isolate,< 0.1 µg/mL
same,MIC,"[12]; strain P0162 (ParC Ser79Phe, GyrA Glu85Ala)",> 256 µg/mL
same,MIC,"[12]; strain P0425 (ParC Ser79Phe, GyrA Glu85Lys)",> 256 µg/mL
same,MIC,"Salmonella enterica; read-out: NCCLS MIC, 37 NAL-R strains",0.54 µg/mL
same,MIC,"Salmonella enterica; read-out: NCCLS MIC, NAL-S strains",≤ 0.06 µg/mL
same,MIC,"Salmonella enterica; read-out: VITEK MIC, 37 strains",2 µg/mL
same,MIC,"Salmonella enterica; read-out: VITEK MIC, five strains",< 0.5 µg/mL
same,resistant isolates,Acinetobacter,100.0%

# Source: article PMC7129073 (Clinical Microbiology and Infection, 2015)
